Reference: PubChem BioAssay (NCI)
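Assay format: 96-well plates, 48-hour exposure. Abbreviation: GI50, concentration required for 50% inhibition of growth. TGI: concentration producing complete growth inhibition.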

Tests used:
Assay in all cases: NCI tumour cell line growth inhibition, 48 h
IGROV1 ovarian = system: IGROV1 ovarian
ACHN renal = system: ACHN renal
SNB-75 CNS = system: SNB-75 CNS
HCC-2998 colon = system: HCC-2998 colon
CCRF-CEM leukemia = system: CCRF-CEM leukemia
U251 CNS = system: U251 CNS
RXF 393 renal = system: RXF 393 renal
UACC-62 melanoma = system: UACC-62 melanoma
HS 578T breast = system: HS 578T breast
EKVX NSCLC = system: EKVX NSCLC
SN12C renal = system: SN12C renal
SK-MEL-28 melanoma = system: SK-MEL-28 melanoma
PC-3 prostate = system: PC-3 prostate
NCI-H23 lung = system: NCI-H23 lung
T-47D breast = system: T-47D breast
NCI/ADR-RES ovarian = system: NCI/ADR-RES ovarian
MCF7 breast = system: MCF7 breast
786-0 renal = system: 786-0 renal
OVCAR-8 ovarian = system: OVCAR-8 ovarian
SK-MEL-5 melanoma = system: SK-MEL-5 melanoma
SNB-19 CNS = system: SNB-19 CNS
K-562 leukemia = system: K-562 leukemia
HOP-62 NSCLC = system: HOP-62 NSCLC
NCI-H460 lung = system: NCI-H460 lung
UACC-257 melanoma = system: UACC-257 melanoma
MDA-MB-231 breast = system: MDA-MB-231 breast
SK-MEL-2 melanoma = system: SK-MEL-2 melanoma
MOLT-4 leukemia = system: MOLT-4 leukemia
MDA-MB-435 = system: MDA-MB-435
SF-295 CNS = system: SF-295 CNS
HT29 colon = system: HT29 colon
OVCAR-4 ovarian = system: OVCAR-4 ovarian
MALME-3M melanoma = system: MALME-3M melanoma
KM12 colon = system: KM12 colon
OVCAR-3 ovarian = system: OVCAR-3 ovarian
HOP-92 NSCLC = system: HOP-92 NSCLC
HCT-116 colon = system: HCT-116 colon
OVCAR-5 ovarian = system: OVCAR-5 ovarian
RPMI-8226 leukemia = system: RPMI-8226 leukemia
DU-145 prostate = system: DU-145 prostate
SW-620 colon = system: SW-620 colon
BT-549 breast = system: BT-549 breast
SF-539 CNS = system: SF-539 CNS
M14 melanoma = system: M14 melanoma
LOX IMVI melanoma = system: LOX IMVI melanoma
NCI-H522 lung = system: NCI-H522 lung
SR leukemia = system: SR leukemia
UO-31 renal = system: UO-31 renal
HCT-15 colon = system: HCT-15 colon
CAKI-1 renal = system: CAKI-1 renal
A549 NSCLC = system: A549 NSCLC
SF-268 CNS = system: SF-268 CNS
HL-60(TB) leukemia = system: HL-60(TB) leukemia
TK-10 renal = system: TK-10 renal
NCI-H226 lung = system: NCI-H226 lung
SK-OV-3 ovarian = system: SK-OV-3 ovarian
COLO 205 colon = system: COLO 205 colon
A498 renal = system: A498 renal

## C=C1CC[C@@H]2C(C)(C)[C@H](O)CC[C@@]2(C)[C@@H]1COc1ccc2ccc(=O)oc2c1
IGROV1 ovarian
  GI50: 27.7 µM
  TGI: > 100 µM
ACHN renal
  GI50: 31.6 µM
  TGI: > 100 µM
SNB-75 CNS
  TGI: 46.3 µM
HCC-2998 colon
  GI50: 42.3 µM
  TGI: > 100 µM
CCRF-CEM leukemia
  GI50: 28.4 µM
  TGI: > 100 µM
U251 CNS
  GI50: 27.5 µM
  TGI: > 100 µM
RXF 393 renal
  GI50: 20.4 µM
  TGI: 79.5 µM
UACC-62 melanoma
  TGI: 48.4 µM
HS 578T breast
  GI50: 25.1 µM
  TGI: 86.8 µM
EKVX NSCLC
  GI50: 29 µM
  TGI: > 100 µM
SN12C renal
  GI50: 28.2 µM
  TGI: > 100 µM
SK-MEL-28 melanoma
  GI50: 28.7 µM
  TGI: 80.6 µM
PC-3 prostate
  GI50: 19.7 µM
  TGI: 66.3 µM
NCI-H23 lung
  GI50: 24.5 µM
  TGI: 70.1 µM
T-47D breast
  GI50: 14.6 µM
  TGI: 64.1 µM
NCI/ADR-RES ovarian
  GI50: 22.9 µM
  TGI: 62.7 µM
MCF7 breast
  GI50: 24.3 µM
  TGI: 80.8 µM
786-0 renal
  GI50: 25 µM
  TGI: 68 µM
OVCAR-8 ovarian
  GI50: 24.2 µM
  TGI: 71 µM
SK-MEL-5 melanoma
  GI50: 17.9 µM
  TGI: 37 µM
SNB-19 CNS
  GI50: 33.7 µM
  TGI: > 100 µM
K-562 leukemia
  GI50: 26.9 µM
  TGI: > 100 µM
HOP-62 NSCLC
  GI50: 28.2 µM
  TGI: > 100 µM
NCI-H460 lung
  GI50: 26.5 µM
  TGI: 71.1 µM
UACC-257 melanoma
  GI50: 26.9 µM
  TGI: 69.5 µM
MDA-MB-231 breast
  GI50: 30.4 µM
  TGI: > 100 µM
SK-MEL-2 melanoma
  GI50: 23.9 µM
  TGI: 65.3 µM
MOLT-4 leukemia
  GI50: 23.9 µM
  TGI: 62 µM
MDA-MB-435
  GI50: 25.3 µM
  TGI: 72.3 µM
SF-295 CNS
  GI50: 21.3 µM
  TGI: 62.4 µM
HT29 colon
  GI50: 32.3 µM
  TGI: > 100 µM
OVCAR-4 ovarian
  GI50: 17.2 µM
  TGI: 56.6 µM
MALME-3M melanoma
  GI50: 20.3 µM
  TGI: 64.2 µM
KM12 colon
  GI50: 21.1 µM
  TGI: 51 µM
OVCAR-3 ovarian
  GI50: 22.3 µM
  TGI: 56 µM
HOP-92 NSCLC
  GI50: 12.5 µM
  TGI: 70.5 µM
HCT-116 colon
  GI50: 26 µM
  TGI: 81.4 µM
OVCAR-5 ovarian
  GI50: 38.2 µM
  TGI: > 100 µM
RPMI-8226 leukemia
  GI50: 15.6 µM
  TGI: 51.9 µM
DU-145 prostate
  GI50: 30.1 µM
  TGI: > 100 µM
SW-620 colon
  GI50: 34.5 µM
  TGI: > 100 µM
BT-549 breast
  GI50: 20.6 µM
  TGI: 64.1 µM
SF-539 CNS
  GI50: 29.9 µM
  TGI: > 100 µM
M14 melanoma
  GI50: 22.5 µM
  TGI: 55.5 µM
LOX IMVI melanoma
  GI50: 23.3 µM
  TGI: 56.5 µM
NCI-H522 lung
  GI50: 21.2 µM
  TGI: 77.4 µM
SR leukemia
  GI50: 40 µM
  TGI: > 100 µM
UO-31 renal
  TGI: 38.4 µM
HCT-15 colon
  GI50: 27 µM
  TGI: > 100 µM
CAKI-1 renal
  GI50: 23.2 µM
  TGI: 74.5 µM
A549 NSCLC
  GI50: 21.9 µM
  TGI: 60 µM
SF-268 CNS
  GI50: 28.4 µM
  TGI: 90.6 µM
HL-60(TB) leukemia
  GI50: 24.1 µM
  TGI: 57.6 µM
TK-10 renal
  GI50: 35.6 µM
  TGI: > 100 µM

## O=C(C(Cl)Cl)N(O)c1ccccc1OCc1ccccc1
IGROV1 ovarian
  TGI: > 100 µM
ACHN renal
  TGI: > 100 µM
NCI-H226 lung
  TGI: > 100 µM
SNB-75 CNS
  TGI: > 100 µM
HCC-2998 colon
  TGI: 6.89 µM
CCRF-CEM leukemia
  TGI: 39 µM
U251 CNS
  TGI: > 100 µM
RXF 393 renal
  TGI: > 100 µM
UACC-62 melanoma
  TGI: 92.2 µM
HS 578T breast
  TGI: 61.7 µM
EKVX NSCLC
  TGI: 48.8 µM
SN12C renal
  TGI: > 100 µM
SK-OV-3 ovarian
  TGI: > 100 µM
SK-MEL-28 melanoma
  TGI: > 100 µM
PC-3 prostate
  TGI: > 100 µM
NCI-H23 lung
  TGI: > 100 µM
T-47D breast
  TGI: 51.8 µM
NCI/ADR-RES ovarian
  TGI: > 100 µM
MCF7 breast
  TGI: > 100 µM
786-0 renal
  TGI: > 100 µM
OVCAR-8 ovarian
  TGI: 63.5 µM
SNB-19 CNS
  TGI: > 100 µM
K-562 leukemia
  TGI: > 100 µM
HOP-62 NSCLC
  TGI: > 100 µM
NCI-H460 lung
  TGI: > 100 µM
UACC-257 melanoma
  TGI: 63.9 µM
MDA-MB-231 breast
  TGI: > 100 µM
SK-MEL-2 melanoma
  TGI: > 100 µM
MOLT-4 leukemia
  TGI: > 100 µM
MDA-MB-435
  TGI: > 100 µM
SF-295 CNS
  TGI: > 100 µM
HT29 colon
  TGI: > 100 µM
OVCAR-4 ovarian
  TGI: 78.9 µM
MALME-3M melanoma
  TGI: > 100 µM
KM12 colon
  TGI: > 100 µM
OVCAR-3 ovarian
  TGI: > 100 µM
HCT-116 colon
  TGI: > 100 µM
OVCAR-5 ovarian
  TGI: > 100 µM
RPMI-8226 leukemia
  TGI: 69.2 µM
DU-145 prostate
  TGI: 45.5 µM
SW-620 colon
  TGI: 68.1 µM
BT-549 breast
  TGI: 1.43 µM
SF-539 CNS
  TGI: > 100 µM
M14 melanoma
  TGI: > 100 µM
LOX IMVI melanoma
  TGI: > 100 µM
NCI-H522 lung
  TGI: 82.4 µM
SR leukemia
  TGI: > 100 µM
UO-31 renal
  TGI: > 100 µM
HCT-15 colon
  TGI: > 100 µM
COLO 205 colon
  TGI: 68 µM
CAKI-1 renal
  TGI: > 100 µM
A549 NSCLC
  TGI: > 100 µM
SF-268 CNS
  TGI: > 100 µM
HL-60(TB) leukemia
  TGI: > 100 µM
TK-10 renal
  TGI: > 100 µM

## CC1=NOC(C)(O)/C1=N/O (configuration not stated)
IGROV1 ovarian
  TGI: > 100 µM
ACHN renal
  TGI: > 100 µM
NCI-H226 lung
  TGI: > 100 µM
SNB-75 CNS
  TGI: > 100 µM
HCC-2998 colon
  TGI: > 100 µM
CCRF-CEM leukemia
  TGI: > 100 µM
U251 CNS
  TGI: > 100 µM
RXF 393 renal
  TGI: > 100 µM
UACC-62 melanoma
  TGI: > 100 µM
HS 578T breast
  TGI: > 100 µM
EKVX NSCLC
  TGI: > 100 µM
SN12C renal
  TGI: > 100 µM
SK-OV-3 ovarian
  TGI: > 100 µM
SK-MEL-28 melanoma
  TGI: > 100 µM
PC-3 prostate
  TGI: > 100 µM
NCI-H23 lung
  TGI: > 100 µM
T-47D breast
  TGI: > 100 µM
NCI/ADR-RES ovarian
  TGI: > 100 µM
MCF7 breast
  TGI: > 100 µM
786-0 renal
  TGI: > 100 µM
OVCAR-8 ovarian
  TGI: > 100 µM
SK-MEL-5 melanoma
  TGI: > 100 µM
SNB-19 CNS
  TGI: > 100 µM
K-562 leukemia
  TGI: > 100 µM
HOP-62 NSCLC
  TGI: > 100 µM
NCI-H460 lung
  TGI: > 100 µM
UACC-257 melanoma
  TGI: > 100 µM
MDA-MB-231 breast
  TGI: > 100 µM
SK-MEL-2 melanoma
  TGI: > 100 µM
MOLT-4 leukemia
  TGI: > 100 µM
MDA-MB-435
  TGI: > 100 µM
SF-295 CNS
  TGI: > 100 µM
HT29 colon
  TGI: > 100 µM
OVCAR-4 ovarian
  TGI: > 100 µM
MALME-3M melanoma
  TGI: > 100 µM
KM12 colon
  TGI: > 100 µM
OVCAR-3 ovarian
  TGI: > 100 µM
HOP-92 NSCLC
  TGI: > 100 µM
HCT-116 colon
  TGI: > 100 µM
OVCAR-5 ovarian
  TGI: > 100 µM
RPMI-8226 leukemia
  TGI: > 100 µM
DU-145 prostate
  TGI: > 100 µM
SW-620 colon
  TGI: > 100 µM
BT-549 breast
  TGI: > 100 µM
SF-539 CNS
  TGI: > 100 µM
M14 melanoma
  TGI: > 100 µM
LOX IMVI melanoma
  TGI: > 100 µM
NCI-H522 lung
  TGI: > 100 µM
A498 renal
  TGI: > 100 µM
UO-31 renal
  TGI: > 100 µM
HCT-15 colon
  TGI: > 100 µM
COLO 205 colon
  TGI: > 100 µM
CAKI-1 renal
  TGI: > 100 µM
A549 NSCLC
  TGI: > 100 µM
SF-268 CNS
  TGI: > 100 µM
HL-60(TB) leukemia
  TGI: > 100 µM
TK-10 renal
  TGI: > 100 µM
